Measurements as given in ChEMBL document CHEMBL1125940 (Bioorg Med Chem Lett, 1991).
Positions of bridges follow the written chain, without caps; N, C: chain ends. Residues, ends and D or L forms follow the SMILES beside them.

target: T1, Endothelin-1 receptor (Rattus norvegicus, UniProt P26684); experiment: Binding affinity towards Endothelin A receptor in A10 rat thoracic aorta smooth muscle cells using [125I]ET1 as radioligand
T1 sequence (P26684 whole entry): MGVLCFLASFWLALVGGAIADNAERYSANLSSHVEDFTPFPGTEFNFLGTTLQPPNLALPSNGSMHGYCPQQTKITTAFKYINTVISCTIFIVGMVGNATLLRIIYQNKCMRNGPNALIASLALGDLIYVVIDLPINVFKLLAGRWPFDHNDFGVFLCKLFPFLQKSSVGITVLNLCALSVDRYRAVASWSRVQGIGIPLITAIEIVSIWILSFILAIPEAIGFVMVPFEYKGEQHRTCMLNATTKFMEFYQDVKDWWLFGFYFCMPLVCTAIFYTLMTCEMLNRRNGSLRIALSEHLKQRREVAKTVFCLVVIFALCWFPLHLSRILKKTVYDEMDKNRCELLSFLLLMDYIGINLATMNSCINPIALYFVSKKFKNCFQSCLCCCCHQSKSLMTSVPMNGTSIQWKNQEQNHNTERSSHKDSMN

Structure (SMILES) | Kd [nM]
CC[C@H](C)[C@H](NC(=O)[C@H](CC(=O)O)NC(=O)[C@H](CC(C)C)NC(=O)[C@H](Cc1c[nH]cn1)NC(=O)[C@@H]1CSSC[C@H](N)C(=O)N[C@@H](CO)C(=O)N[C@H]2CSSC[C@H](NC(=O)[C@H](CCC(=O)O)NC(=O)[C@H](CCCCN)NC(=O)[C@H](C)NC(=O)[C@H](CCSC)NC(=O)[C@H](CC(C)C)NC(=O)[C@H](CO)NC(=O)[C@H](CO)NC2=O)C(=O)N[C@@H](C(C)C)C(=O)N[C@@H](Cc2ccc(O)cc2)C(=O)N[C@@H](Cc2ccccc2)C(=O)N1)C(=O)N[C@H](C(=O)N[C@@H](Cc1c[nH]c2ccccc12)C(=O)O)[C@@H](C)CC (H-CSCSSLMAKECVYFCHLDIIW-OH; disulfide 1-15, 3-11) [listing 1 of 2 here] | 3070
CC[C@H](C)[C@H](NC(=O)[C@H](CC(=O)O)NC(=O)[C@H](CC(C)C)NC(=O)[C@H](Cc1cnc[nH]1)NC(=O)[C@@H]1CSSC[C@H](N)C(=O)N[C@@H](CO)C(=O)N[C@H]2CSSC[C@H](NC(=O)[C@H](CCC(=O)O)NC(=O)[C@H](CCCCN)NC(=O)[C@H](CC(=O)O)NC(=O)[C@H](CCSC)NC(=O)[C@H](CC(C)C)NC(=O)[C@H](CO)NC(=O)[C@H](CO)NC2=O)C(=O)N[C@@H](C(C)C)C(=O)N[C@@H](Cc2ccc(O)cc2)C(=O)N[C@@H](Cc2ccccc2)C(=O)N1)C(=O)N[C@@H](C)C(=O)N[C@@H](Cc1c[nH]c2ccccc12)C(=O)O (H-CSCSSLMDKECVYFCHLDIAW-OH; disulfide 1-15, 3-11) | 2.11
CC[C@H](C)[C@H](NC(=O)[C@H](CC(=O)O)NC(=O)[C@H](CC(C)C)NC(=O)[C@H](Cc1c[nH]cn1)NC(=O)[C@@H]1CSSC[C@H](N)C(=O)N[C@@H](CO)C(=O)N[C@H]2CSSC[C@H](NC(=O)[C@H](CCC(=O)O)NC(=O)[C@H](CCCCN)NC(=O)[C@H](CC(=O)O)NC(=O)[C@H](CCSC)NC(=O)[C@H](CC(C)C)NC(=O)[C@H](CO)NC(=O)[C@H](CO)NC2=O)C(=O)N[C@@H](C(C)C)C(=O)N[C@@H](Cc2ccc(O)cc2)C(=O)N[C@@H](C)C(=O)N1)C(=O)N[C@H](C(=O)N[C@@H](Cc1c[nH]c2ccccc12)C(=O)O)[C@@H](C)CC (H-CSCSSLMDKECVYACHLDIIW-OH; disulfide 1-15, 3-11) [listing 1 of 2 here] | 646
CC[C@H](C)[C@H](NC(=O)[C@H](CC(=O)O)NC(=O)[C@H](CC(C)C)NC(=O)[C@H](Cc1cnc[nH]1)NC(=O)[C@@H]1CSSC[C@H](N)C(=O)N[C@@H](CO)C(=O)N[C@H]2CSSC[C@H](NC(=O)[C@H](C)NC(=O)[C@H](CCCCN)NC(=O)[C@H](CC(=O)O)NC(=O)[C@H](CCSC)NC(=O)[C@H](CC(C)C)NC(=O)[C@H](CO)NC(=O)[C@H](CO)NC2=O)C(=O)N[C@@H](C(C)C)C(=O)N[C@@H](Cc2ccc(O)cc2)C(=O)N[C@@H](Cc2ccccc2)C(=O)N1)C(=O)N[C@H](C(=O)N[C@@H](Cc1c[nH]c2ccccc12)C(=O)O)[C@@H](C)CC (H-CSCSSLMDKACVYFCHLDIIW-OH; disulfide 1-15, 3-11) | 188

species: Oryctolagus cuniculus; experiment: Percent of endothelin-1 induced contraction of carotid arteries isolated from New Zealand white rabbits, tested at 1 uM concentration of compound; type: functional

Structure (SMILES) | Contraction [%]
CC[C@H](C)[C@H](NC(=O)[C@H](CC(=O)O)NC(=O)[C@H](CC(C)C)NC(=O)[C@H](Cc1c[nH]cn1)NC(=O)[C@@H]1CSSC[C@H](N)C(=O)N[C@@H](CO)C(=O)N[C@H]2CSSC[C@H](NC(=O)[C@H](CCC(=O)O)NC(=O)[C@H](CCCCN)NC(=O)[C@H](CC(=O)O)NC(=O)[C@H](CCSC)NC(=O)[C@H](CC(C)C)NC(=O)[C@H](CO)NC(=O)[C@H](CO)NC2=O)C(=O)N[C@@H](C(C)C)C(=O)N[C@@H](Cc2ccc(O)cc2)C(=O)N[C@@H](Cc2ccccc2)C(=O)N1)C(=O)N[C@H](C(=O)N[C@@H](C)C(=O)O)[C@@H](C)CC (H-CSCSSLMDKECVYFCHLDIIA-OH; disulfide 1-15, 3-11) | 0
CC[C@H](C)[C@H](NC(=O)[C@H](C)NC(=O)[C@H](CC(C)C)NC(=O)[C@H](Cc1c[nH]cn1)NC(=O)[C@@H]1CSSC[C@H](N)C(=O)N[C@@H](CO)C(=O)N[C@H]2CSSC[C@H](NC(=O)[C@H](CCC(=O)O)NC(=O)[C@H](CCCCN)NC(=O)[C@H](CC(=O)O)NC(=O)[C@H](CCSC)NC(=O)[C@H](CC(C)C)NC(=O)[C@H](CO)NC(=O)[C@H](CO)NC2=O)C(=O)N[C@@H](C(C)C)C(=O)N[C@@H](Cc2ccc(O)cc2)C(=O)N[C@@H](Cc2ccccc2)C(=O)N1)C(=O)N[C@H](C(=O)N[C@@H](Cc1c[nH]c2ccccc12)C(=O)O)[C@@H](C)CC (H-CSCSSLMDKECVYFCHLAIIW-OH; disulfide 1-15, 3-11) | 0
CC[C@H](C)[C@H](NC(=O)[C@H](CC(=O)O)NC(=O)[C@H](C)NC(=O)[C@H](Cc1c[nH]cn1)NC(=O)[C@@H]1CSSC[C@H](N)C(=O)N[C@@H](CO)C(=O)N[C@H]2CSSC[C@H](NC(=O)[C@H](CCC(=O)O)NC(=O)[C@H](CCCCN)NC(=O)[C@H](CC(=O)O)NC(=O)[C@H](CCSC)NC(=O)[C@H](CC(C)C)NC(=O)[C@H](CO)NC(=O)[C@H](CO)NC2=O)C(=O)N[C@@H](C(C)C)C(=O)N[C@@H](Cc2ccc(O)cc2)C(=O)N[C@@H](Cc2ccccc2)C(=O)N1)C(=O)N[C@H](C(=O)N[C@@H](Cc1c[nH]c2ccccc12)C(=O)O)[C@@H](C)CC (H-CSCSSLMDKECVYFCHADIIW-OH; disulfide 1-15, 3-11) | 0
CC[C@H](C)[C@H](NC(=O)[C@H](CC(=O)O)NC(=O)[C@H](CC(C)C)NC(=O)[C@H](Cc1c[nH]cn1)NC(=O)[C@@H]1CSSC[C@H](N)C(=O)N[C@@H](CO)C(=O)N[C@H]2CSSC[C@H](NC(=O)[C@H](CCC(=O)O)NC(=O)[C@H](CCCCN)NC(=O)[C@H](CC(=O)O)NC(=O)[C@H](CCSC)NC(=O)[C@H](CC(C)C)NC(=O)[C@H](CO)NC(=O)[C@H](CO)NC2=O)C(=O)N[C@@H](C(C)C)C(=O)N[C@@H](Cc2ccc(O)cc2)C(=O)N[C@@H](C)C(=O)N1)C(=O)N[C@H](C(=O)N[C@@H](Cc1c[nH]c2ccccc12)C(=O)O)[C@@H](C)CC (H-CSCSSLMDKECVYACHLDIIW-OH; disulfide 1-15, 3-11) [listing 2 of 2 here] | 6
CC[C@H](C)[C@H](NC(=O)[C@H](CC(=O)O)NC(=O)[C@H](CC(C)C)NC(=O)[C@H](Cc1c[nH]cn1)NC(=O)[C@@H]1CSSC[C@H](NC(C)=O)C(=O)N[C@@H](CO)C(=O)N[C@H]2CSSC[C@H](NC(=O)[C@H](CCC(=O)O)NC(=O)[C@H](CCCCN)NC(=O)[C@H](CC(=O)O)NC(=O)[C@H](CCSC)NC(=O)[C@H](CC(C)C)NC(=O)[C@H](CO)NC(=O)[C@H](CO)NC2=O)C(=O)N[C@@H](C(C)C)C(=O)N[C@@H](Cc2ccc(O)cc2)C(=O)N[C@@H](Cc2ccccc2)C(=O)N1)C(=O)N[C@H](C(=O)N[C@@H](Cc1c[nH]c2ccccc12)C(=O)O)[C@@H](C)CC | 36
CSCC[C@@H]1NC(=O)[C@H](CC(C)C)NC(=O)[C@H](CO)NC(=O)[C@H](CO)NC(=O)[C@@H]2CSSC[C@H](NC(=O)[C@H](CCC(=O)O)NC(=O)[C@H](CCCCN)NC(=O)[C@H](CC(=O)O)NC1=O)C(=O)N[C@@H](C(C)C)C(=O)N[C@@H](Cc1ccc(O)cc1)C(=O)N[C@@H](Cc1ccccc1)C(=O)N[C@H](C(=O)N[C@@H](Cc1c[nH]cn1)C(=O)N[C@@H](CC(C)C)C(=O)N[C@@H](CC(=O)O)C(=O)N[C@@H](C)C(=O)N[C@@H](C)C(=O)N[C@@H](Cc1c[nH]c3ccccc13)C(=O)O)CSSC[C@H](N)C(=O)N[C@@H](CO)C(=O)N2 (H-CSCSSLMDKECVYFCHLDAAW-OH; disulfide 1-15, 3-11) | 50
CC[C@H](C)[C@H](NC(=O)[C@H](CC(=O)O)NC(=O)[C@H](CC(C)C)NC(=O)[C@H](Cc1c[nH]cn1)NC(=O)[C@@H]1CSSC[C@H](N)C(=O)N[C@@H](CO)C(=O)N[C@H]2CSSC[C@H](NC(=O)[C@H](CCC(=O)O)NC(=O)[C@H](CCCCN)NC(=O)[C@H](CC(=O)O)NC(=O)[C@H](CCSC)NC(=O)[C@H](CC(C)C)NC(=O)[C@H](CO)NC(=O)[C@H](CO)NC2=O)C(=O)N[C@@H](C(C)C)C(=O)N[C@@H](Cc2ccc(O)cc2)C(=O)N[C@@H](Cc2ccccc2)C(=O)N1)C(=O)N[C@@H](C)C(=O)N[C@@H](Cc1c[nH]c2ccccc12)C(=O)O (H-CSCSSLMDKECVYFCHLDIAW-OH; disulfide 1-15, 3-11) | 37
CC[C@H](C)[C@H](NC(=O)[C@H](CC(=O)O)NC(=O)[C@H](CC(C)C)NC(=O)[C@H](Cc1c[nH]cn1)NC(=O)[C@@H]1CSSC[C@H](N)C(=O)N[C@@H](CO)C(=O)N[C@H]2CSSC[C@H](NC(=O)[C@H](C)NC(=O)[C@H](CCCCN)NC(=O)[C@H](CC(=O)O)NC(=O)[C@H](CCSC)NC(=O)[C@H](CC(C)C)NC(=O)[C@H](CO)NC(=O)[C@H](CO)NC2=O)C(=O)N[C@@H](C(C)C)C(=O)N[C@@H](Cc2ccc(O)cc2)C(=O)N[C@@H](Cc2ccccc2)C(=O)N1)C(=O)N[C@H](C(=O)N[C@@H](Cc1c[nH]c2ccccc12)C(=O)O)[C@@H](C)CC (H-CSCSSLMDKACVYFCHLDIIW-OH; disulfide 1-15, 3-11) | 7
CC[C@H](C)[C@H](NC(=O)[C@H](CC(=O)O)NC(=O)[C@H](CC(C)C)NC(=O)[C@H](Cc1c[nH]cn1)NC(=O)[C@@H]1CSSC[C@H](N)C(=O)N[C@@H](CO)C(=O)N[C@H]2CSSC[C@H](NC(=O)[C@H](CCC(=O)O)NC(=O)[C@H](CCCCN)NC(=O)[C@H](C)NC(=O)[C@H](CCSC)NC(=O)[C@H](CC(C)C)NC(=O)[C@H](CO)NC(=O)[C@H](CO)NC2=O)C(=O)N[C@@H](C(C)C)C(=O)N[C@@H](Cc2ccc(O)cc2)C(=O)N[C@@H](Cc2ccccc2)C(=O)N1)C(=O)N[C@H](C(=O)N[C@@H](Cc1c[nH]c2ccccc12)C(=O)O)[C@@H](C)CC (H-CSCSSLMAKECVYFCHLDIIW-OH; disulfide 1-15, 3-11) [listing 2 of 2 here] | 60
